Assay results as given in a melting point compilation (Tetko et al.; mined from patent text by program, amines drawn as free bases though some values may be those of a salt).

| melting point [°C] | SMILES |
| --- | --- |
| 124 to 125 | O=C(N[C@@H](CCC1CCCCC1)[C@@H](O)[C@@H](O)CN1CCOCC1)OCc1ccccc1 |
| 151 to 152 | O=C(Nc1cccc(Br)n1)c1cc(-c2ccc(F)cc2)n(C2CCCCO2)n1 (stereo unspecified) |
| 177 to 178 | O=C(O)C1=Cc2cc(F)c(N3CCC4(CC3)OCCCO4)nc2N(c2ccc(F)cc2F)C1 |
| 45 to 46 | N#CCCCN(Cc1ccccc1)Cc1ccccc1 |
| 192 | CCC(=O)OC(C)(CC)c1nc2c(C(F)(F)F)cccc2c(O)c1C(=O)Nc1ccccn1 (stereo unspecified) |
| 202 | O=C(Nc1ccc2cc(CN3CCCCCC3)cnc2c1)c1ccc(-c2ccc(F)cc2)cc1 |
| 70 to 72 | O=C(NCCOCc1cccc(Cl)c1)c1c(Cl)cccc1Cl |
| 143 to 144 | CC(=O)c1cc2c(cc1NC(=O)c1cccc3ccccc13)OCO2 |
| 95 to 96 | Cc1ccc(S(=O)(=O)NC(COS(=O)(=O)c2ccc(C)cc2)Cc2ccccc2)cc1 (stereo unspecified) |
| 85 to 86 | COC(=O)C=Cc1ccc2ccccc2n1 |
| 208 to 210 | O=C(Nc1cccc(F)c1)N1CCc2cc(S(=O)(=O)N3CCN(c4cccc(Cl)c4)CC3)ccc21 |
| 158 to 161 | Oc1ccc2c(c1)OC(c1ccc(OCCN3CCCCC3)cc1)c1c-2ccc2cc(O)ccc12 (stereo unspecified) |
| 148 to 149 | CC(C)(C)c1cc(CCCOc2ccccc2NC(=O)NC2CCN(Cc3ccccc3)CC2)cc(C(C)(C)C)c1O |
| 128 to 130 | COc1ccc(C)c(N2CCN(C(=O)Nc3cc4ccccc4nc3OC)CC2)c1 |
| 49 | CCOC(=O)Cc1ccc(-n2cccn2)cc1 |
| 65 to 68 | CNCCN(C)C(=O)OC(Cc1ccccc1)C(=O)N(C)C(Cc1c[nH]cn1)C(=O)NC(CC1CCCCC1)C(O)CCC(C)C (stereo unspecified) |
| 140 to 141 | CN(C)C=C(C#N)C(=O)Nc1ccccc1Br |
| 216 to 217 | O=C(COc1ccc(C2=NNC(=O)NC2)cc1)NCCN1CCOCC1 |
| 190 to 193 | O=C(Nc1ccc2[nH]c(=O)oc2c1)C(=O)N1CCC(Cc2ccccc2)CC1 |
| 78 to 80 | COc1cccc([N+](=O)[O-])c1NC(=O)OCc1ccccc1 |
| 98 to 100 | c1ccc(CC2CNCCNCCNCCNCCN2)cc1 (stereo unspecified) |
| 140 | CCCc1c(OCc2ccccc2)ccc2c(=O)cc(/C=C/C(=O)OCC)oc12 |
| 124 to 126 | CCOC(=O)C(O)=Cc1nccc(OCc2ccccc2)n1 |
| 148 to 150 | O=C1CCC(c2cccc(O)c2)N1Cc1ccncc1 (stereo unspecified) |
| 147 | CNC(=O)N(c1ccccc1)c1ncc(C)n1-c1ccccc1 |
| 207 to 210 | O=C(Nc1ccc(CN2C(=O)[C@H]3CCC[C@H]3N(C(=O)CCl)c3ccccc32)cc1)Oc1ccccc1 (relative stereo) |
| 162 to 163 | O=C1CCCc2nc3ccccc3c(NCc3ccccc3)c21 |
| 112 to 115 | CC(C)(C)OC(=O)N[C@@H](Cc1ccc(C(=N)NC(=O)OCc2ccccc2)cc1)C(=O)O |

The remaining lines, values behind:

| SMILES | melting point [°C] |
| --- | --- |
| CCCCc1nc(C(O)(CC)CC)c(C(=O)OCC)[nH]1 | 63 to 64 |
| CNC(=O)On1c(C(F)(F)F)nc2nc(Br)c(Cl)c(Br)c21 | 216 |
| Cc1ccc2c(=O)[nH]c(N3CCN(C)CC3)cc2c1 | 242 to 243 |
| CCN(CC)CC#CC(=O)Nc1ccc2ncc(C#N)c(Nc3ccc(F)c(Cl)c3)c2c1 | 117 to 120 |
| CCCC(C)c1nn(-c2ccc(C(F)(F)F)cn2)cc1C=O (stereo unspecified) | 63 to 64 |
| Cc1cc(=O)[nH]c(SCc2ccc(Br)cc2N(C)C)n1 | 163 to 164 |
| CCCOc1nc(N)nc2nc[nH]c12 | 198 to 200 |
| CCCc1c(O)cc2oc3cccn3c(=O)c2c1O | 170 to 171 |
| CN(C)CC#C[C@H]1CC[C@H](CN(C)c2ncc(Br)cn2)CC1 | 71 to 72 |
| COc1ccc2[nH]c(=O)c3cccn3c2n1 | 250 |
| COc1ccc2c(c1OC)CCC(C#N)C2C#N (stereo unspecified) | 107 to 108 |
| C#Cc1cncc(C2CCC(=O)N2C)c1 (stereo unspecified) | 83 to 84 |
| Cn1cc(C2=C(c3c4n(c5ccccc35)CCC(C#N)C4)C(=O)OC2=O)c2ccccc21 (stereo unspecified) | 309 to 311 |
| CC(C)C(NC(=O)c1ccc(Cl)cc1)NC(=NC#N)Nc1cccnc1 (stereo unspecified) | 182 to 184 |
| Cc1ncccc1CN(CCn1cc(C)c2occc2c1=O)Cc1ccc2c(c1)N(CC(C)C)C(=O)C(C)(C)C(=O)N2 | 206 to 208 |
| O=C(O)CCCc1c([N+](=O)[O-])cc(O)c(O)c1[N+](=O)[O-] | 165 to 170 |
| CCOC(C)OC(CCOc1ccc([N+](=O)[O-])cc1)C(F)(F)F (stereo unspecified) | 81 |
| O=[N+]([O-])c1cc(Cl)c(Oc2ccccc2)c(Cl)c1Oc1ccccc1 | 164 |
| COC(=O)c1ccc(CN(OC)C(=O)C=C(O)C(=O)O)cc1 | 123 to 125 |
| COC(=O)CN(CC(=O)OC)S(=O)(=O)c1ccc(C)cc1 | 99 to 100 |
| Cn1c(C(F)(F)F)cc(=O)n(-c2cc(OCc3ccccc3F)c(Cl)cc2F)c1=O | 126 to 128 |
| Cc1cc(NC2=NCCN2C)n(C)n1 | 128 to 130 |

| SMILES | melting point [°C] |
| --- | --- |
| CCOC(=O)C(OCC)C(=O)Nc1ccc(Br)cc1 (stereo unspecified) | 62 to 64 |
| COc1cc(OC)cc(N2CCN(C(=O)Nc3nc(C)c(C)nc3OC)CC2)c1 | 136 to 137 |
| COc1cccc2oc(=O)c3c4c(ccc3c12)NC(C)(C)C=C4C | 247 to 248 |
| CC(=O)Nc1nc(C)c(S(=O)(=O)NC(C)(C)CO)s1 | 194 |
| Cc1nc(-c2cccnc2)sc1-c1ccnc(Nc2ccc(N3CCCC3)cc2)n1 | 212 to 214 |
| CCCCCCCC=CC1=Nc2ccc(F)cc2C(=O)C1C (stereo unspecified) | 192 to 193 |
| COc1cc(-c2ncn(C)c2-c2ccc(C(F)(F)F)cc2)cc(OC)c1OC | 168 |
| CCCCCCCCC/C=C1\SC(=O)N(CC(=O)OC)C1=O | 30 |
| CCc1nnc(-c2cccc([N+](=O)[O-])c2)n1-c1ccc(OC)cc1 | 126 |
| O=[N+]([O-])c1cc(CBr)n(CCBr)n1 | 95 to 97 |
| CS(=O)(=O)c1ccc(-c2cc(=O)cc(CO)o2)cc1 | 120 |
| CCCCOCCOc1ccc(-c2ccc3c(c2)C=C(C(=O)Nc2ccc(OCc4nccn4CCC)cc2)CCN3CC(C)C)cc1 | 118 to 120 |
| CSc1cc(N)ccc1[N+](=O)[O-] | 178 to 182 |
| COc1ccc(-c2cc(COCCc3cccc(NS(=O)(=O)C(F)(F)F)c3)ccc2F)cc1 | 70 to 71 |
| CC(=O)c1ccc(-c2ccc(F)cc2)c([N+](=O)[O-])c1 | 88 to 90 |
| CN1C(=O)C(c2cccc(-c3cncnc3)c2)(c2cscn2)N=C1N (stereo unspecified) | 234 to 237 |
| Cc1nn(-c2ccc(C(F)(F)F)cn2)cc1CCCO | 103 to 104 |
| Cc1ccc2[nH]c(SCC(F)(F)F)nc2c1 | 159 to 161 |
| CCC(=O)C1=C(O)CC(c2ccc(Oc3ccc(S(C)(=O)=O)cc3)cc2)CC1=O (stereo unspecified) | 157 to 158 |
| COc1cc(NC(=O)c2cccc(CSc3nc(NC(C)=O)n[nH]3)c2)cc(OC)c1OC | 196 to 201 |
| Cn1cncc1-c1c(C(CC#N)c2ccc(Cl)cc2)ccc2c1c(-c1cccc(Cl)c1)cc(=O)n2C (stereo unspecified) | 151 |
